Tests used:
cleaved-caspase-3 = test: Caspase-3 expression in cortical neurons in the presence of amyloid-beta peptide (Western blot); type: cell-based, rat; conditions: 10-50 μg/mL in the presence of Aβ25-35 (10 μM), overnight
Procedure: FIG. 5. Adelostemma gracillimum refined fraction inhibits caspase-3 production in primary cortical neurons induced by Aβ. Primary cortical neuron cultures (7DIV) were treated with various concentrations of AG-0 (10-50 μg/mL) in the presence of Aβ25-35 (10 μM). Proteins were extracted after overnight incubation and Western blot analysis was performed. Blots were probed with antibodies against caspase-3 and ERK protein. Staurosporine (STS, 10 μM) was used as a positive control, while DMSO served as the vehicle control.
The cells were then incubated with test samples and amyloid-beta peptide fragment 25-35 (Aβ, 10 uM, Sigma) in growth medium.

[1] = test system: Aβ25-35-treated primary cortical neurons; test: Cortical neuron survival assay with amyloid-beta peptide insult (MTT); type: cell-based, rat; conditions: for cell survival of cortical neurons treated with Aβ25-35 (MTT): 50 μM, except GAG-C69 at 30 μM, Aβ25-35 10 μM (FIG. 19)
Procedure: FIG. 4. […] After overnight incubation, the MTT assay was performed. Cell survival was calculated as a percentage compared to vehicle control (“CTL no Abeta”).
Exogenous addition of amyloid beta peptide (Aβ) initiates cell death of neuronal cultures via apoptosis.
The cells were then incubated with test samples and amyloid-beta peptide fragment 25-35 (Aβ, 10 μM, Sigma) in growth medium. A tetrazole, 3-(4,5-Dimethylthiazol-2-yl)-2,5-diphenyltetrazolium bromide (MTT, 5 mg/ml) was added to the medium at a ratio of 1:10 after 24-hr incubation. MTT is reduced by living cells into purple formazan and further solubilized in 20% SDS solution; therefore, the colored solution was measured by spectrophotometer and cell viability was quantified.

[2] = test system: cyclic AMP response (CRE) element; test: CRE-dependent transcription assay (luciferase); type: cell-based, rat; conditions: hippocampal neurons 12DIV, 50 μM, 6 hours
Procedure: FIG. 41. GAG compounds enhance CRE-dependent transcription activity. GAG-C14 (a), GAG-C53 (b), GAG-C63 (c), GAG-C69 (d), GAG-C84 (e), GAG-C111 (f), GAG-C122 (g), GAG-C123 (h), and GAG-C129 (i) induce CRE-dependent transcriptional activity in cultured hippocampal neurons. On the day of cell seeding, hippocampal neurons were transfected with a firefly luciferase reporter plasmid containing cyclic AMP response (CRE)-element. The cells at 12 DIV were then treated with 50 μM of AG compounds for 6 hours. Data are mean±SEM (n=3-4), *=P<0.05, **=P<0.01, and ***=P<0.005 versus vehicle-treated cells (0 μM), student's t test.
Cultured hippocampal neurons were transfected with a firefly luciferase reporter plasmid containing a cyclic AMP response (CRE) element. At 12DIV, the cells were treated with 50 μM of compound for 6 hours, then CRE-dependent transcription activity was assayed by measuring luciferase levels.
Freshly isolated embryonic cortical neurons were transfected with a luciferase reporter gene (Cre-Luc) linked to CREB activation following the ACM lipofectamine method using Lipofectamine 2000, a cationic liposome based reagent (Invitrogen). […] Transfection was performed using 1 μL Lipofectamine 2000 and 0.4 μg DNA per well. Neurons were then treated with test samples for time periods of 6 hours. After treatment, the cells were washed with ice-cold DPBS and 100 μL of 1× luciferase lysis buffer (Promega) was added. The plates were placed in −20° C. to freeze the cells, after which they were thawed to facilitate lysis. The lysates were transferred onto white bottom plates and assayed for renilla luciferase using the luciferase assay kit (Promega). Increased CREB activation in the neurons leads to an enhanced luciferase production and this was quantified using a Promega GloMax™ 96 microplate luminometer. […] BDNF and rolipram were used as positive controls.

[3] = test system: glutamate-induced excitotoxicity in cortical neurons; test: Glutamate survival assay (LDH release); type: cell-based, rat; conditions: 30 μM; glutamate 10-200 μM, all concentrations examined
Procedure: FIG. 34. GAG-C73 decreases primary neuron cell death induced by high doses of glutamate. Cortical neurons were incubated with GAG-C73 (30 μM) or DMSO control for 2 hrs, followed by co-treatment with differing concentrations of glutamate (10-200 μM) for 20 min. LDH release into the medium was then measured.
Glutamate is the physiological neurotransmitter that activates NMDA receptors. However, excess amounts of glutamate can result in excitotoxicity and potential cell death. Survival assays were conducted to determine the ability of GAG-C73 to effectively protect neuronal cells from glutamate-induced excitotoxicity.

[4] = test system: NMDA receptor-induced excitotoxicity in primary cortical neuronal cells; test: NMDA survival assay (LDH release)
Procedure: Embryonic rat cortical neurons (11 DIV) were pre-treated with various concentrations of AG—0 (0.1 -30 μg/mL) and then co-incubated with NMDA (20 μM). After 20 min, the medium was replaced with fresh medium, and after overnight incubation lactate dehydrogenase (LDH) released into the medium was measured. Cell death was calculated as a percentage compared to solvent control (“CTL without NMDA”). Assays were conducted in duplicate and repeated at least twice. *=P<0.05.
Cortical neurons were plated on 48-well plate (Nunc) at a density of 1.1×10^5 cells per well and cultured for 11-12 days (11-12 DIV). Neurons were pre-treated with the test compounds for 2 hours prior to N-Methyl-D-Aspartate (NMDA, Sigma) or glutamate (MSG, Sigma) treatment. Briefly, the neurons were rinsed with Locke's solution (5 mM potassium chloride, 128 mM sodium chloride, 2.7 mM calcium chloride, 1 mM di-sodium hydrogen orthophosphate, 5 mM HEPES and 10 mM glucose in Milli-Q water) without Mg^2+, followed by incubation in Locke's solution with addition of glycine (0.1 μM) for 15 minutes. After the incubation, the neurons were co-treated with the test compound (dissolved in Locke's plus glycine solution) and NMDA (20 μM) or glutamate for 20 min. Neurons were then rinsed with Locke's solution containing Mg^2+ and replaced with fresh growth medium. Cell death was assayed and quantified using the lactate dehydrogenase release assay (Cytotoxicity Detection Kit, Roche). Data was compared to a DMSO vehicle control and represented in mean±SEM. The student t-test was used for statistical analysis.

[5] = test system: phosphorylated ERK, CREB, Akt, P38, MEK in cortical neurons; test: Western blot detection of signaling proteins in cortical neurons; type: cell-based, rat; conditions: cortical neurons 7DIV, 0.1-10 μM, 15 min (FIGS. 16, 18, 20)
NMDA receptor = test: Whole-cell patch clamp; type: cell-based, rat; conditions: hippocampal neurons, −70 mV
Procedure: FIG. 31. GAG-C73 inhibits NMDA-induced current in hippocampal neurons. The effects of GAG-C73 on NMDA-activated currents in rat hippocampal neurons (11DIV) were examined using whole-cell patch clamp studies. Addition of NMDA induced depolarization and initiated an inward current in pyramidal cells. A. Examples of NMDA-activated currents before, during, and after application of GAG-C73 (30 μM) are shown. Horizontal bars denote GAG-C73 application. B-C. […] DMSO was used as a solvent control. The concentration of glycine was 0.1 μM, and membrane potential was held at −70 mV. n=10; three independent experiments were performed. *=P<0.05.
The NMDA receptor is a gated ion channel, which allows inflow of current during a nerve impulse. Antagonists to the receptor would prevent the inflow of current.
Hippocampal neurons were plated onto PDL-coated 35 mm dishes (NUNC) at a density of 3×10^5 cells per plate. Half of the medium was changed with NB, B27 and […] L-glutamine every 2 to 3 days. On day 12 in vitro (12DIV), whole-cell patch clamp study was performed. […] Holding potential of patched cells was kept at −70 mV and currents were recorded using Axopatch-200B amplifier (Axon Instruments, USA). […] Data was analyzed by pClamp9 software and percentage of inhibition on NMDA-induced current was' represented in comparison to a DMSO solvent control.

Row | SMILES | expression level of cleaved-caspase-3 (17 kDa, active form) (cleaved-caspase-3) | cell survival of cortical neurons treated with Aβ25-35 (MTT) [1] | survival of neurons against Aβ insult (MTT) ([1]; various concentrations, Aβ25-35 10 μM) | CRE-dependent transcription activity (luciferase) [2] | cell death compared to the DMSO control (LDH) [3] | cell death compared to the DMSO control (LDH) ([4]; 30 μM, NMDA 5-100 μM, at toxic dosages of NMDA) | neuronal survival following NMDA treatment (LDH) ([4]; 30-50 μM pre-treated 2 hours, NMDA 20 min (FIG. 17)) | cell death compared to the DMSO control (LDH) ([4]; varying concentrations pre-treated 2 hrs, NMDA 20 μM) | ERK phosphorylation [5] | NMDA-induced current (peak and plateau) (NMDA receptor; 30 μM co-treatment with NMDA) | NMDA-induced current with increasing doses (NMDA receptor)
1 | C/C=C/c1ccc2c(c1)OC(c1ccc(O)c(OC)c1)C(C)O2 (stereo not drawn) [GAG-C69, 3-methoxyl-4-hydroxyl-(7′-E)-5′7-epoxy-8,4′-oxyneolignane-7′ en] | significantly decreased to levels comparable to that without Aβ | promoted cell survival | increases the survival of neurons against Aβ insult comparable to control levels | enhances CRE-dependent transcription |  |  |  |  |  |  | 
2 | C=C(C)[C@@H]1CCC2(C(=O)O)CC[C@]3(C)C(=CCC4[C@@]5(C)CCC(O)[C@@](C)(CO)C5CC[C@]43C)C12 (stereo partly drawn) [GAG-C73, 3,23-dihydroxyl-12(13)-en-Lup-20(29)-en-28-oic acid] |  | promoted cell survival |  |  | significant reduction in cell death | significant reduction in cell death | promoted neuronal survival | significant dose-dependent reduction in cell death | induced ERK phosphorylation | reduced the current induced by NMDA, for both peak and plateau currents | further decreased the NMDA-induced current

From patent publication US9150608B2, “Neuro-protective compounds and their use” (Biotechnology Research Corp. Ltd., priority 2010, dated 2015)
